Measurements published in ChEMBL document CHEMBL1201862, “PubChem BioAssay data set” (2004).
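The compound was tested at five concentrations on cells cultured in 96-well plates, with a 48-hour exposure period. GI50: concentration for 50% inhibition of growth.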 Activity calls are given as the source filed them. Cut-off read from the data, not from the text of the source: active = GI50 up to about 1.1 µM and inactive = higher.

Key:
Assay in all cases: NCI tumour cell line growth inhibition, 48 h
[1] = system: 786-0
[2] = system: BT-549
[3] = system: COLO 205
[4] = system: HCC 2998
[5] = system: HL-60
[6] = system: K562
[7] = system: KM12
[8] = system: LOX IMVI
[9] = system: MDA-MB-435
[10] = system: MOLT-4
[11] = system: Malme-3M
[12] = system: NCI-H460
[13] = system: NCI-H522
[14] = system: RXF 393
[15] = system: SK-MEL-28
[16] = system: SK-MEL-5
[17] = system: SNB-75
[18] = system: SR
[19] = system: T47D
[20] = system: UACC-257

Measured: GI50

C=CS(=O)(=O)c1c2cc(OC)ccc2nc2ccc(OC)cc12
inactive: [1] 2.37 µM | [2] 10.5 µM | [3] 4.34 µM | [4] 7.91 µM | [5] 7.96 µM | [6] 4.39 µM | [7] 9.89 µM | [8] 2.21 µM | [9] 5.58 µM | [10] 2.32 µM | [11] 2.04 µM | [12] 5.12 µM | [13] 1.73 µM | [14] 3.99 µM | [15] 7.98 µM | [16] 14.1 µM | [17] 12.4 µM | [18] 2.32 µM | [19] 3.43 µM | [20] 7.53 µM

CC(C)(C)C1=NC(=S)SC2=NC(=O)C3(NN21)c1ccccc1-c1ccccc13
inactive: [1] 9.57 µM | [2] 6.35 µM | [3] > 10 µM | [4] > 10 µM | [5] 6.79 µM | [6] 5.05 µM | [7] > 10 µM | [8] > 10 µM | [9] > 10 µM | [10] 3.45 µM | [11] > 10 µM | [12] 4.61 µM | [13] 9.25 µM | [14] > 10 µM | [15] > 10 µM | [16] 3.44 µM | [17] > 10 µM | [18] 4.59 µM | [19] 2.04 µM | [20] > 10 µM

CC1OC(OC2C(O[C@@H]3C[C@@H]4CC[C@@H]5[C@H](CC[C@]6(C)C7C(C[C@@H]56)O[C@]5(CC[C@@H](C)CO5)[C@H]7C)[C@@]4(C)C[C@H]3O)OC(CO)C(O)C2O)C(O)C(O)C1O (stereo not given in full)
inactive: [1] 1.82 µM | [2] 1.93 µM | [3] 1.85 µM | [4] 1.82 µM | [5] 2.06 µM | [6] 1.89 µM | [7] 2.32 µM | [8] 1.78 µM | [9] 1.8 µM | [10] 1.86 µM | [11] 1.82 µM | [12] 1.92 µM | [13] 1.89 µM | [14] 2.15 µM | [15] 1.85 µM | [16] 2.09 µM | [17] 2.24 µM | [18] 2.16 µM | [19] 2.14 µM | [20] 1.86 µM
